PubChem BioAssay (NCI)
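Tested at 5 concentrations; 48 h exposure; 96-well plates; endpoints linearly interpolated, else capped at highest concentration. At the GI50, growth is halved. At the TGI there is no net growth.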

Assays:
Assay in all cases: NCI-60 cell line screen, 48 h
ACHN renal = system: ACHN renal
COLO 205 colon = system: COLO 205 colon
LOX IMVI melanoma = system: LOX IMVI melanoma
MALME-3M melanoma = system: MALME-3M melanoma
NCI-H522 lung = system: NCI-H522 lung
RPMI-8226 leukemia = system: RPMI-8226 leukemia
SK-MEL-5 melanoma = system: SK-MEL-5 melanoma
SNB-75 CNS = system: SNB-75 CNS
U251 CNS = system: U251 CNS
UO-31 renal = system: UO-31 renal
HL-60(TB) leukemia = system: HL-60(TB) leukemia

Structure (SMILES) | TGI (ACHN renal) | TGI (COLO 205 colon) | TGI (LOX IMVI melanoma) | TGI (MALME-3M melanoma) | TGI (NCI-H522 lung) | TGI (RPMI-8226 leukemia) | TGI (SK-MEL-5 melanoma) | TGI (SNB-75 CNS) | TGI (U251 CNS) | TGI (UO-31 renal) | TGI (HL-60(TB) leukemia) | GI50 (ACHN renal) | GI50 (COLO 205 colon) | GI50 (HL-60(TB) leukemia) | GI50 (LOX IMVI melanoma) | GI50 (MALME-3M melanoma) | GI50 (NCI-H522 lung) | GI50 (RPMI-8226 leukemia) | GI50 (SNB-75 CNS) | GI50 (U251 CNS)
COc1ccc(CNc2cc(=O)n(C)c(=O)[nH]2)cc1 | > 100 µM | > 100 µM | > 100 µM | > 100 µM | > 100 µM | > 100 µM | > 100 µM | > 100 µM | > 100 µM | > 100 µM | – | – | – | – | – | – | – | – | – | –
CN1CCN(P2(=S)Oc3ccc4ccccc4c3-c3c(ccc4ccccc34)O2)CC1 | – | 28.8 µM | 39.6 µM | 50.8 µM | 64 µM | 43.1 µM | 53.2 µM | > 100 µM | > 100 µM | 48 µM | 39.9 µM | – | – | – | – | – | – | – | – | –
CCOC(=O)C1CCCCN1C(=O)Cc1c[nH]c2ccccc12 (stereo not drawn) | > 100 µM | > 100 µM | > 100 µM | > 100 µM | > 100 µM | 64.7 µM | – | > 100 µM | > 100 µM | – | 58.6 µM | – | – | – | – | – | – | – | – | –
COc1ccc(Nc2ccc([N+](=O)[O-])cc2[N+](=O)[O-])cc1CN(CCCl)CCCl | 5.94 µM | 7.84 µM | 3.51 µM | 4.71 µM | 4.29 µM | 9.75 µM | – | 13.4 µM | 30 µM | – | 7.26 µM | 1.63 µM | 1.8 µM | 1.88 µM | 1.37 µM | 1.96 µM | 1.76 µM | 1.86 µM | 2.39 µM | 3.11 µM
CCCn1c(=O)c(N2CCN(c3ccccc3)CC2)nc2sc3ccccc3c21 | > 100 µM | > 100 µM | > 100 µM | > 100 µM | > 100 µM | – | > 100 µM | > 100 µM | > 100 µM | > 100 µM | > 100 µM | – | – | – | – | – | – | – | – | –
CN(C)CCNC(=O)c1cccc2c(NC(CCC(N)=O)C(=O)O)c3ccccc3nc12 (stereo not drawn) | 18.8 µM | 19.8 µM | 35.6 µM | 19.5 µM | 22.3 µM | > 100 µM | 31.4 µM | 30.8 µM | > 100 µM | 7.15 µM | – | – | – | – | – | – | – | – | – | –
CCOC(=O)c1c[nH]c2ccc3c(c2c1=O)S(=O)(=O)CC3 (tested in a mixture with another compound) | – | > 100 µM | > 100 µM | > 100 µM | > 100 µM | > 100 µM | > 100 µM | > 100 µM | > 100 µM | > 100 µM | > 100 µM | – | – | – | – | – | – | – | – | –
CC(C)(C)OC(=O)NCCCCC(N)NC(=O)c1ccccc1 (stereo not drawn) | > 100 µM | > 100 µM | > 100 µM | > 100 µM | > 100 µM | > 100 µM | > 100 µM | > 100 µM | > 100 µM | > 100 µM | – | – | – | – | – | – | – | – | – | –
Cc1cc(NS(=O)(=O)c2ccc(NC(=O)c3cccc4c(Nc5ccc(S(N)(=O)=O)cc5)c5ccccc5nc34)cc2)no1 | > 100 µM | – | > 100 µM | > 100 µM | > 100 µM | > 100 µM | – | > 100 µM | > 100 µM | > 100 µM | > 100 µM | – | – | – | – | – | – | – | – | –
O=c1[nH]nc(-c2ccccc2)n1O | > 100 µM | > 100 µM | > 100 µM | > 100 µM | > 100 µM | > 100 µM | > 100 µM | – | > 100 µM | > 100 µM | > 100 µM | – | – | – | – | – | – | – | – | –
CCCCNc1nc(NC2OCC(OC(C)=O)C(OC(C)=O)C2OC(C)=O)c(N=O)c(=O)n1C (stereo not drawn) | > 10 µM | > 10 µM | > 10 µM | > 10 µM | > 10 µM | > 10 µM | > 10 µM | > 10 µM | > 10 µM | – | > 10 µM | – | – | – | – | – | – | – | – | –
C=CCC1(C)CCCN(Cc2ccccc2)C1=O (stereo not drawn) | > 10 µM | > 10 µM | > 10 µM | > 10 µM | > 10 µM | > 10 µM | 1.48 µM | – | > 10 µM | > 10 µM | > 10 µM | – | – | – | – | – | – | – | – | –
NNc1nnc(-c2nnc(NN)o2)o1 | > 10 µM | > 10 µM | – | > 10 µM | – | > 10 µM | > 10 µM | – | > 10 µM | > 10 µM | > 10 µM | – | – | – | – | – | – | – | – | –
Cc1cnc2c(c1C)C(=O)c1ccccc1C2=O | > 100 µM | > 100 µM | – | – | > 100 µM | > 100 µM | 28.9 µM | > 100 µM | > 100 µM | > 100 µM | – | – | – | – | – | – | – | – | – | –
N#C/C(C(=S)NCc1ccccc1)=C(/N)N1CCCC1 | > 100 µM | > 100 µM | > 100 µM | > 100 µM | > 100 µM | > 100 µM | > 100 µM | – | > 100 µM | > 100 µM | > 100 µM | – | – | – | – | – | – | – | – | –
N#CCCC1(CCC#N)CCCCCCCCC(CCC#N)(CCC#N)C(O)C1O (stereo not drawn) | > 100 µM | > 100 µM | > 100 µM | > 100 µM | > 100 µM | 58.2 µM | > 100 µM | > 100 µM | > 100 µM | – | – | – | – | – | – | – | – | – | – | –
CCCc1[nH]c2ccccc2c1-c1c(CCC)[nH]c2ccccc12 | 31.7 µM | 37.1 µM | 17.3 µM | 32.7 µM | 34.2 µM | > 100 µM | 23.7 µM | 39.7 µM | 21.9 µM | 34.7 µM | – | – | – | – | – | – | – | – | – | –
COc1cccc(/N=N/C(=NNC(=O)c2ccc(C)cc2)c2ccc(N(C)C)cc2)c1 | > 100 µM | > 100 µM | > 100 µM | – | > 100 µM | > 100 µM | > 100 µM | – | > 100 µM | > 100 µM | > 100 µM | – | – | – | – | – | – | – | – | –
O=C1NC2CCCCCC2C12CCCCC2 (stereo not drawn) | > 100 µM | – | > 100 µM | > 100 µM | – | – | – | > 100 µM | > 100 µM | > 100 µM | > 100 µM | – | – | – | – | – | – | – | – | –
COc1ccc(C(=O)/C=C/c2ccc(OCC#N)cc2)cc1 | > 100 µM | 40.5 µM | – | 43.7 µM | 35.6 µM | – | 28.4 µM | > 100 µM | 32.5 µM | 30.6 µM | – | – | – | – | – | – | – | – | – | –
O=C1CCCC/C1=C\c1ccc(Cl)c(Cl)c1 | 33.5 µM | 96.6 µM | 34.7 µM | – | – | – | 32.5 µM | 46.8 µM | 30.6 µM | 34 µM | 48.9 µM | – | – | – | – | – | – | – | – | –
